Data taken from patent publication US6551796B1, “Nucleic acid encoding urate transporter and methods of use thereof” (Mount Sinai School of Medicine, priority 1997, dated 2003).
Values belong to the molecule of their own block, whether it stands above or below them.

How the values were obtained:
Assay type in all cases: biochemical
[1] = target: T1, recombinant UAT (urate transporter/channel) (Rattus norvegicus, UniProt P97840, L187H); experiment: Channel activity of recombinant rat UAT reconstituted in planar lipid bilayer (patch clamp recording); conditions: for effect on channel activity, cis (cytoplasmic) side: agent added to cis chamber / cytoplasmic side of UAT; for concentration that completely blocked channel activity: agent in trans chamber (extracellular side of UAT); for reversibility of block of channel activity: replacing the agent-containing solution with agent-free urate solution
T1 construct: 6-histidine metal chelating domain (pRSET A leader) (N); made in house; host or cells: E. coli BL21(DE3)pLysE, vector pRSET A
Description: (§1) A mixture of bovine phosphatidyl-ethanolamine (PE, 10 mg/ml), and phosphatidylserine (PS, 10 mg/ml) (Avanti Polar Lipids, Birmingham. Ala.) in a ratio of 1:1 (wt/wt) was evaporated to dryness under nitrogen. The resultant phospholipid pellet was suspended in 48 μl of a solution containing 220 mM KCl, CsCl or Cs2SO4 and 10 mM HEPES-NaOH at pH 7.4. Following the addition of 2 μl recombinant UAT protein (50-100 μg/ml), proteoliposomes were formed by sonicating the mixture for 30 sec at 80 kHz in a bath sonicator (Laboratory Supplies, Hicksville, N.Y.) as described by Leal-Pinto et al. (1995) J. Membrane Biol. 146:123. In some experiments, proteoliposomes were prepared with the same lipids but with 10 μl recombinant HIV-1 Tat protein, as described by Zagury et al. (1996) Cellular Pharm.—AIDS Sciences 3:97 at 380 μg/ml and 40 μl of 220 mM Cs2SO4, 10 mM HEPES-NaOH at pH 7.4. Fresh proteoliposomes were prepared for each experiment.
(§2) The lipid bilayer chamber was identical to that described by Leal-Pinto et al. (1995) J. Membrane Biol. 146:123. The two cups of the plexiglass bilayer chamber were each initially filled with 1 ml of a solution whose electrolyte composition was identical to that in which the proteoliposomes were prepared. A 1:1 (wt/wt) mixture of bovine brain PE (10 mg/ml) and PS (10 mg/ml) (Avanti Polar Lipids) was dried with a nitrogen stream, dissolved in decane (Sigma Chemical Co.) to 50 mg lipid/ml and then painted with a club-shaped glass rod onto a 50 um hole in a Teflon film (Type C-20, 12.5 um thick, Dupont Electronics, Wilmington, Del.) that was fitted between the two cups of the chamber. Offset potentials due to all junction potentials were corrected by using the zero adjust system of the patch clamp amplifier (Model PC-501, Warner Instrument Co.). The voltage was subsequently clamped at varying levels (−100 to +100 mV): voltage was generated and controlled by the patch clamp amplifier. If a stable resistance of at least 100 gigohms and a noise of less than 0.2 pA were maintained, the experiments were initiated.
(§3) Experiments were initiated by adding proteoliposomes to the trans chamber (1 μl of UAT or 5-50 μl of HIV-1 Tat proteoliposomes). The solution was stirred until fusion occurred. Fusion usually occurred within 2-3 minutes of the addition of UAT-containing proteoliposomes, evidenced by the presence of channel gating (clear transitions between the closed and open states). Once fusion occurred the stirrers were stopped and the solution in the trans chamber was replaced with 1 ml of an identical solution, without proteoliposomes, to limit further channel incorporation. In all experiments channel activity was initially evaluated in the presence of symmetrical solutions of 2.5 mM urate in either 220 mM KCl, CsCl, or Cs2SO4, 10 mM HEPES-NaOH, and 0.25 mM CaCl2 at pH 7.4. In some experiments channel activity was compared in the absence and presence of 5 mM Ba^+−. To evaluate channel selectivity, experiments were performed in symmetrical solutions of 2.5 mM urate, but with infinite gradients of K^+, Cs^−, Ca^−−, Cl^− and/or SO4^═ established by using the following combination of buffered solutions in the cis and trans chambers, respectively: a) CsCl and KCl, b) Cs2SO4 and CsCl, and c) Cs2SO4 with Ca^−+ and Cs2SO4 without Ca^−+. Selectivity was also evaluated in symmetrical solutions of 220 mM Cs2SO4, 10 mM HEPES-NaOH, and 0.25 mM CaCl2 at pH 7.4 in the presence of a 10:1 urate gradient: the 2.5 mM urate, buffered Cs2SO4 solution in the trans chamber was replaced with a Cs2SO4 solution containing 0.25 mM urate. In a final group of experiments, channel activity was compared in symmetrical solutions of 2.5 mM urate, 220 mM Cs2SO4, 10 mM HEPES-NaOH, and 0.25 mM CaCl2 at pH 7.4 before and after an increasing amount of non-immune IgG (up to 200 μg) or the IgG fraction of antiporcine uricase (up to 15 μg) was sequentially added to each side of the lipid bilayer. […]

[2] = target: T2, hUAT (human urate transporter/channel, galectin 9) (Homo sapiens, UniProt O00182); experiment: Channel activity of recombinant human UAT (galectin 9) reconstituted in lipid bilayer
T2 construct: 6-histidine tag (N); made in house
Description: Galactin 9 was reported to be a secreted neutrophil chemoattractant. However, galectin 9 has more than 75% amino acid homology to the rat urate transporter/channel. To test whether galectin 9 is the human plasma membrane-associated urate transporter channel, cDNA was generated by RT-PCR of RNA from WBC of a normal donor and fused with an amino terminal 6-histidine tag in a bacterial expression vector. Recombinant protein (hUAT) was prepared and then purified on a Ni-NTA column. hUTA was sonicated into liposomes, fused with a lipid bilayed, and channel activity was recorded. Channel activity was only detected in the presence of urate. […] This difference in voltage sensitivity is consistent with the absence of a positively charged amino acid in hUAT in a region of the putative voltage sensing loop within rat UAT.
In a continued search for local blocks of homology between rat and human UAT and known proteins, a highly significant block of homology to copper chaperones was detected in the carboxy terminus of both the rat and human UAT. Based on the possibility that this portion of UAT binds copper, like copper chaperones, experiments were conducted to determine whether copper was able to modulate UAT channel activity. Using rat and human recombinant UAT it was observed that copper plays an important role in modulating channel activity.
The rat and human urate transporter/channel amino acid sequence contains two galactose binding sites. In the molecular model of the urate transporter/channel, both of these sites reside in extracellular domains of the protein. One site is located between the putative first and second transmembrane domain, the second is located between the putative third and fourth transmembrane domains. Experiments indicate that the addition of lactose (less than 50 μM) to the side of the bilayer chamber that is believed to face the extracellular domains of the protein alters the biophysical properties of the human urate transporter channel. […] In vivo, this could result in increased urate excretion and ultimately a reduction in plasma urate concentration.

[3] = target: T3, recombinant UAT (urate transporter/channel) (Rattus norvegicus, UniProt P97840); experiment: Channel activity of recombinant rat UAT reconstituted in planar lipid bilayer (patch clamp recording); conditions: 2.5 mM urate cis : 2.5 mM oxonate trans
T3 construct: 6-histidine metal chelating domain (pRSET A leader) (N); made in house; host or cells: E. coli BL21(DE3)pLysE, vector pRSET A
Description: as §1, §2, §3

[4] = less than 1 μM copper added to the bathing solution
[5] = less than 50 μM on the side facing the extracellular domains

T1 sequence (P97840 1-322 isoform P97840-2 L155H): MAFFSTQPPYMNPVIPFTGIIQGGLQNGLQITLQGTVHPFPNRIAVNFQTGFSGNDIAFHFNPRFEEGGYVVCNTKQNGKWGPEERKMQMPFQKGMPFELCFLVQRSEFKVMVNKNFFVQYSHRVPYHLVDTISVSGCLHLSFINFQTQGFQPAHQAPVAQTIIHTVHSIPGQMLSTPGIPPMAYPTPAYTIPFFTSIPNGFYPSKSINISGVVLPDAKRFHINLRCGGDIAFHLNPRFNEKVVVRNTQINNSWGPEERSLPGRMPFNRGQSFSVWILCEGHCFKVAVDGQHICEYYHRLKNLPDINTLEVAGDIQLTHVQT
T2 sequence (O00182 1-323 isoform O00182-2): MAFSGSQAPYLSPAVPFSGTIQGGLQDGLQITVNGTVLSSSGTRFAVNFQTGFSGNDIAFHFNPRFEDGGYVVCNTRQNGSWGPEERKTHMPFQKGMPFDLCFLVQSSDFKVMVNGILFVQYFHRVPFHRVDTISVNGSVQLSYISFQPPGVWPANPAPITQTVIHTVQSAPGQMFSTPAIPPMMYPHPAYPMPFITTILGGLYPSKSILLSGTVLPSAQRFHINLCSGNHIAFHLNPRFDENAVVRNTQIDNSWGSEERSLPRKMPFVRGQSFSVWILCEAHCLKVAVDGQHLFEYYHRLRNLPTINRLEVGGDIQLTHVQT
T3 sequence (P97840 1-322 isoform P97840-2 L155H): as the sequence (P97840 1-322 isoform P97840-2 L155H) above

SMILES: [Cu] [copper]
- effect on channel activity [1, 4]: significantly increases channel activity
- effect on channel activity [2, 4]: significantly increases channel activity
- open probability of the human channel after addition ([2]; less than 1 μM copper, from 5-15% before addition): 50-60%

SMILES: [Ba+2] [Ba^+−]
- effect on channel activity ([1]; 5 mM, symmetrical 2.5 mM urate and 220 mM KCl): failed to alter channel activity

SMILES: O=C(O)c1cnccn1 [PZA, pyrazinoate]
- effect on channel activity, cis (cytoplasmic) side [1]: without effect
- concentration that completely blocked channel activity ([1]; mean±SE): 24.1 ± 8.9 µM
- reversibility of block of channel activity [1]: reversed

SMILES: Nc1ncnc2c1ncn2[C@@H]1O[C@H](CO)[C@@H](O)[C@H]1O [adenosine]
- effect on channel activity, cis (cytoplasmic) side [1]: failed to block channel activity
- concentration that completely blocked channel activity ([1]; mean±SE): 4.6 ± 2.6 µM
- effect on channel activity from the trans side of the bilayer [2]: blocked channel activity

SMILES: O=c1[nH]c(=O)c2[nH]cnc2[nH]1 [xanthine]
- effect on channel activity, cis (cytoplasmic) side [1]: blocked channel activity
- concentration that completely blocked channel activity ([1]; mean±SE): 4.6 ± 1.5 µM
- ratio of blocking concentration, extracellular side versus cytoplasmic face ([1]; complete block of channel activity): approximately one-tenth

The remaining lines, values ahead:

- channel activity under bi-ionic conditions [3]: ceased after approximately one hour
- effect on channel activity, trans side ([1]; 250 μM on the trans side of the channel, symmetrical urate): not affected
- concentration at which channel activity was 97% blocked ([1]; oxonate in cis (cytoplasmic) chamber, symmetrical 2.5 mM urate, mean±SE, n=3): 108 ± 16 µM
- reversibility of block of channel activity [1]: reversed
SMILES: O=C(O)c1nc(=O)[nH]c(=O)[nH]1 [oxonate]

- effect on channel activity from the trans side of the bilayer [2]: blocked channel activity
SMILES: NC(=O)c1cnccn1 [pyrazinamide]

- effect on current [2, 5]: increase in current
- effect on stability of the channel in the lipid bilayer [2, 5]: apparent stabilization of the channel
SMILES: OC[C@H]1O[C@@H](O[C@H]2[C@H](O)[C@@H](O)C(O)O[C@@H]2CO)[C@H](O)[C@@H](O)[C@H]1O (some centres unmarked) [lactose]
